In ChEMBL document CHEMBL5608181, “Discovery of indazole inhibitors for heat shock protein 90 as anti-cancer agents” (Eur J Med Chem, 2024):
Activity calls are given as the source filed them. The rule behind the calls is not given here.

Columns and labels:
BT-474 [1] = assay: Antiproliferative activity against human BT-474 cells assessed as inhibition of cell viability at 10 uM measured after 72 hrs by CellTiter 96 Aqueous One Solution Cell Proliferation Assay relative to control; type: functional
JIMT-1 = assay: Antiproliferative activity against human JIMT-1 cells assessed as inhibition of cell viability at 10 uM measured after 72 hrs by CellTiter 96 Aqueous One Solution Cell Proliferation Assay relative to control; type: functional
HEK293 = assay: Cytotoxicity against HEK293 cells assessed as reduction in cell viability at 10 uM measured after 72 hrs by CellTiter 96 Aqueous One Solution Cell Proliferation Assay; type: toxicity, cell-based; conditions: human, hek293, 72 h
[2] = AUClast in Sprague-Dawley rat at 5 mg/kg, iv; type: ADME, organism-based; conditions: in vivo
[3] = AUCinfinity in Sprague-Dawley rat at 5 mg/kg, iv; type: ADME, organism-based; conditions: in vivo
[4] = Antiproliferative activity against human Trastuzumab-sensitive BT474 cell assessed as inhibition of cell viability measured after 72 hrs by CellTiter 96 Aqueous One Solution Cell Proliferation Assay; type: functional, cell-based; conditions: BT-474, 72 h
[5] = system: Trastuzumab-resistant JIMT-1; assay: Antiproliferative activity against human Trastuzumab-resistant JIMT-1 cell assessed as inhibition of cell viability measured after 72 hrs by CellTiter 96 Aqueous One Solution Cell Proliferation Assay; type: functional, cell-based; conditions: Trastuzumab-resistant JIMT-1, 72 h
BT-474 [6] = assay: Downregulation of HER2 expression in human Trastuzumab-sensitive BT474 cell at 10 uM measured upto 72 hrs by Western blot analysis; type: functional, cell-based
BT-474 [7] = assay: Downregulation of AKT expression in human Trastuzumab-sensitive BT474 cell at 10 uM measured upto 72 hrs by Western blot analysis; type: functional, cell-based
[8] = target: Heat shock protein HSP 90-alpha (Homo sapiens) (UniProt P07900); assay: Inhibition of HSP90alpha in human Trastuzumab-sensitive BT474 cells assessed as reduction in HER2 phosphorylation level at Tyr1221/1222 residues at 10 uM measured upto 72 hrs by Western blot analysis; type: cell-based
[9] = target: Heat shock protein HSP 90-alpha (Homo sapiens) (UniProt P07900); assay: Inhibition of HSP90alpha in human Trastuzumab-sensitive BT474 cell assessed as reduction in Akt phosphorylation level at Ser473 residues at 10 uM measured upto 72 hrs by Western blot analysis; type: cell-based
BT-474 [10] = assay: Downregulation of cyclinD1 level in human Trastuzumab-sensitive BT474 cell at 10 uM measured upto 72 hrs by Western blot analysis; type: functional, cell-based
BT-474 [11] = assay: Downregulation of survivin protein level in human Trastuzumab-sensitive BT474 cell at 10 uM measured upto 72 hrs by Western blot analysis; type: functional, cell-based
[12] = system: Trastuzumab-resistant JIMT-1; assay: Downregulation of HER2 expression in human Trastuzumab-resistant JIMT-1 cell at 10 uM measured upto 72 hrs by Western blot analysis; type: functional, cell-based
[13] = system: Trastuzumab-resistant JIMT-1; assay: Downregulation of AKT expression in human Trastuzumab-resistant JIMT-1 cell at 10 uM measured upto 72 hrs by Western blot analysis; type: functional, cell-based
[14] = target: Heat shock protein HSP 90-alpha (Homo sapiens) (UniProt P07900); assay: Inhibition of HSP90alpha in human Trastuzumab-resistant JIMT-1 cell assessed as reduction in HER2 phosphorylation level at Tyr1221/1222 residues at 10 uM measured upto 72 hrs by Western blot analysis; type: cell-based
[15] = target: Heat shock protein HSP 90-alpha (Homo sapiens) (UniProt P07900); assay: Inhibition of HSP90alpha in human Trastuzumab-resistant JIMT-1 cell assessed as reduction in Akt phosphorylation level at Ser473 residues at 10 uM measured upto 72 hrs by Western blot analysis; type: cell-based
[16] = system: Trastuzumab-resistant JIMT-1; assay: Downregulation of cyclinD1 level in human Trastuzumab-resistant JIMT-1 cell at 10 uM measured upto 72 hrs by Western blot analysis; type: functional, cell-based
[17] = system: Trastuzumab-resistant JIMT-1; assay: Downregulation of survivin protein level in human Trastuzumab-resistant JIMT-1 cell at 10 uM measured upto 72 hrs by Western blot analysis; type: functional, cell-based
[18] = target: Heat shock protein HSP 90-alpha (Homo sapiens) (UniProt P07900); assay: Inhibition of PPID binding to C-terminal Hsp90-alpha CTD (unknown origin) at 500 uM by Alpha screen microplate reader analysis
Homo sapiens = species: Homo sapiens; assay: Inhibition of N-terminal HSP90 (unknown origin) at 10 uM by AlphaLISA assay
[19] = system: Trastuzumab-resistant JIMT-1; assay: Antitumor activity against human Trastuzumab-resistant JIMT-1 cell xenografted in female BALB/c nude mouse assessed as inhibition of tumor burden at 20 mg/kg, ip administered every other day for 40 days; type: functional, organism-based; conditions: time 40.0 day
[20] = system: Trastuzumab-resistant JIMT-1; assay: Antitumor activity against human Trastuzumab-resistant JIMT-1 cell xenografted in female BALB/c nude mouse assessed as inhibition of tumor volume at 20 mg/kg, ip administered every other day for 40 days; type: functional, organism-based; conditions: time 40.0 day
[21] = system: Trastuzumab-resistant JIMT-1; assay: Antitumor activity against human Trastuzumab-resistant JIMT-1 cell xenografted in female BALB/c nude mouse assessed as inhibition of tumor weight at 20 mg/kg, ip administered every other day for 40 days; type: functional, organism-based; conditions: time 40.0 day
[22] = Toxicity in female BALB/c nude mouse assessed as effect on body weight at 20 mg/kg, ip administered every other day for 40 days; type: organism-based; conditions: in vivo, 960 h, time 40 day
[23] = Metabolic stability in human liver microsomes assessed as parent compound remaining measured after 30 mins; type: ADME, Microsome; conditions: read-out: Stability
[24] = Metabolic stability in rat liver microsomes assessed as parent compound remaining measured after 30 mins; type: ADME, Microsome; conditions: read-out: Stability
[25] = Stability in human plasma assessed as compound remaining incubated for 120 mins; type: ADME, cell-free; conditions: read-out: Stability
[26] = Stability in rat plasma assessed as compound remaining incubated for 120 mins; type: ADME, cell-free; conditions: read-out: Stability
[27] = AUC/dose in Sprague-Dawley rat at 5 mg/kg, iv; type: ADME, organism-based; conditions: in vivo
[28] = C0 in Sprague-Dawley rat at 5 mg/kg, iv; type: ADME, organism-based; conditions: in vivo
[29] = Half life in Sprague-Dawley rat at 5 mg/kg, iv; type: ADME, organism-based; conditions: in vivo
[30] = MRTinfinity in Sprague-Dawley rat at 5 mg/kg, iv; type: ADME, organism-based; conditions: in vivo
[31] = Clearance in Sprague-Dawley rat at 5 mg/kg, iv; type: ADME, organism-based; conditions: in vivo
[32] = Volume of distribution in Sprague-Dawley rat at 5 mg/kg, iv; type: ADME, organism-based; conditions: in vivo
[33] = AUClast in Sprague-Dawley rat at 10 mg/kg, po; type: ADME, organism-based; conditions: in vivo
[34] = AUCinfinity in Sprague-Dawley rat at 10 mg/kg, po; type: ADME, organism-based; conditions: in vivo
[35] = AUC/dose in Sprague-Dawley rat at 10 mg/kg, po; type: ADME, organism-based; conditions: in vivo
[36] = Cmax in Sprague-Dawley rat at 10 mg/kg, po; type: ADME, organism-based; conditions: in vivo
[37] = Tmax in Sprague-Dawley rat at 10 mg/kg, po; type: ADME, organism-based; conditions: in vivo
[38] = Half life in Sprague-Dawley rat at 10 mg/kg, po; type: ADME, organism-based; conditions: in vivo
[39] = MRTinfinity in Sprague-Dawley rat at 10 mg/kg, po; type: ADME, organism-based; conditions: in vivo
[40] = Clearance in Sprague-Dawley rat at 10 mg/kg, po; type: ADME, organism-based; conditions: in vivo
[41] = Volume of distribution in Sprague-Dawley rat at 10 mg/kg, po; type: ADME, organism-based; conditions: in vivo
[42] = Oral bioavailability in Sprague-Dawley rat at 10 mg/kg; type: ADME, organism-based; conditions: in vivo
hERG (KCNH2) [43] = target: T1, hERG (KCNH2) (Homo sapiens, UniProt Q12809); assay: Inhibition of human ERG at 10 uM by fluorescence polarization assay relative to control
hERG (KCNH2) [44] = target: T1, hERG (KCNH2); assay: Inhibition of human ERG expressed in CHO cells at 3 uM by whole-cell patch clamp assay relative to control; type: toxicity, cell-based; conditions: CHO cells expressing hERG
hERG (KCNH2) [45] = target: T1, hERG (KCNH2); assay: Inhibition of human ERG expressed in CHO cells at 30 uM by whole-cell patch clamp assay relative to control; type: toxicity, cell-based; conditions: CHO cells expressing hERG
CYP1A2 = target: T2, CYP1A2 (Homo sapiens, UniProt P05177); assay: Inhibition of CYP1A2 (unknown origin) at 10 uM relative to control; type: ADME
T2 sequence (P05177 whole entry): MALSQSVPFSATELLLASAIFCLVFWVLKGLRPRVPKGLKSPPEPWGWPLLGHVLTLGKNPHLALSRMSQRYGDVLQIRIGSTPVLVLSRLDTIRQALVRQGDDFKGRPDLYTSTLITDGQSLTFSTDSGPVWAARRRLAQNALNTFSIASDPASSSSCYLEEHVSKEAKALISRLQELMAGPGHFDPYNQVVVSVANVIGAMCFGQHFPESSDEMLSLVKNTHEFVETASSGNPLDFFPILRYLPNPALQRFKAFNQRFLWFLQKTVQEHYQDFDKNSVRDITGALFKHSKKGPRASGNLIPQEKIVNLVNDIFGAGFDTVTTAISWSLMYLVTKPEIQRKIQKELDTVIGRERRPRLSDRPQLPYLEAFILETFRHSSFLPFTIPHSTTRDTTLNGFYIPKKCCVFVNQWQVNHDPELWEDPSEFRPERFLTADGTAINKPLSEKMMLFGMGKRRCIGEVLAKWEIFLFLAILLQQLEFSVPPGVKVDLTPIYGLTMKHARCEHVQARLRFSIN

CYP2C9 = CYP2C9 (Homo sapiens, UniProt P11712); assay: Inhibition of CYP2C9 (unknown origin) at 10 uM relative to control; type: ADME
CYP3A4 = CYP3A4 (Homo sapiens, UniProt P08684); assay: Inhibition of CYP3A4 (unknown origin) at 10 uM relative to control; type: ADME
CYP2C19 = CYP2C19 (Homo sapiens, UniProt P33261); assay: Inhibition of CYP2C19 (unknown origin) at 10 uM relative to control; type: ADME
CYP2D6 = CYP2D6 (Homo sapiens, UniProt P10635); assay: Inhibition of CYP2D6 (unknown origin) at 10 uM relative to control; type: ADME
[46] = Genotoxicity in Salmonella typhimurium TA98 in presence of rat liver S9 fraction by Ames test; type: toxicity, subcellular; conditions: salmonella enterica subsp. enterica serovar typhimurium
[47] = Genotoxicity in Salmonella typhimurium TA98 in absence of rat liver S9 fraction by Ames test; type: toxicity; conditions: salmonella enterica subsp. enterica serovar typhimurium
[48] = Genotoxicity in Salmonella typhimurium TA100 in presence of rat liver S9 fraction by Ames test; type: toxicity, subcellular; conditions: salmonella enterica subsp. enterica serovar typhimurium
[49] = Genotoxicity in Salmonella typhimurium TA100 in absence of rat liver S9 fraction by Ames test; type: toxicity; conditions: salmonella enterica subsp. enterica serovar typhimurium

T1 sequence (Q12809 whole entry): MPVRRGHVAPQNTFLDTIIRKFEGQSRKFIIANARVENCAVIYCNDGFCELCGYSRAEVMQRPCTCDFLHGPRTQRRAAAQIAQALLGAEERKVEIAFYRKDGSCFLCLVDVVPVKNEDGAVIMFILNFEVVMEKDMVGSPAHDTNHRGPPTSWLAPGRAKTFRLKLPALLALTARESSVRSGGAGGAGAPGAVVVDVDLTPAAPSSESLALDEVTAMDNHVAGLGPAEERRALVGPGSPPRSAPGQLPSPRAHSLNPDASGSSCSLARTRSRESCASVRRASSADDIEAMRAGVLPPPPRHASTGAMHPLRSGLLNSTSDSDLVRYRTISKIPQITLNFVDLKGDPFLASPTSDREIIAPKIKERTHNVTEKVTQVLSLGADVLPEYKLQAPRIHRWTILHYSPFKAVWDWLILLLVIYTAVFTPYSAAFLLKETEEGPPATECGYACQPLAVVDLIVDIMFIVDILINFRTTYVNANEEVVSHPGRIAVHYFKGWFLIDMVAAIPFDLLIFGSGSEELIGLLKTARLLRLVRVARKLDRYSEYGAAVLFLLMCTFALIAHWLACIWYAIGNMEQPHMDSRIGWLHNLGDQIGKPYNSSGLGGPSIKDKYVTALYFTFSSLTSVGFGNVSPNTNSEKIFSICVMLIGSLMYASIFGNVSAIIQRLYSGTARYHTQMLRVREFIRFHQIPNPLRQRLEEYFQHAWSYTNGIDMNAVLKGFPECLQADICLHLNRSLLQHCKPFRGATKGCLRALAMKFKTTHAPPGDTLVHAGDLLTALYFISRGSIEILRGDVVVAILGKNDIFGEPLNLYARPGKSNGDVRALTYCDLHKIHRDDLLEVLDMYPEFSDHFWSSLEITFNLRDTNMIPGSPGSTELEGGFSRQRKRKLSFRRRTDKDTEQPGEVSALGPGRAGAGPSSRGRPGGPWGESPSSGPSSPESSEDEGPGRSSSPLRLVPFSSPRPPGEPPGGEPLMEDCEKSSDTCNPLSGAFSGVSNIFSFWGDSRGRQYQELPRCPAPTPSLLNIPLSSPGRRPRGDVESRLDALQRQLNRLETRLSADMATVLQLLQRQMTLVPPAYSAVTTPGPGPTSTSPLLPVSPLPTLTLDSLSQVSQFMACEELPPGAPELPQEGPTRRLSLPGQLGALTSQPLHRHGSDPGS
CYP2C19, sequence (P33261 whole entry): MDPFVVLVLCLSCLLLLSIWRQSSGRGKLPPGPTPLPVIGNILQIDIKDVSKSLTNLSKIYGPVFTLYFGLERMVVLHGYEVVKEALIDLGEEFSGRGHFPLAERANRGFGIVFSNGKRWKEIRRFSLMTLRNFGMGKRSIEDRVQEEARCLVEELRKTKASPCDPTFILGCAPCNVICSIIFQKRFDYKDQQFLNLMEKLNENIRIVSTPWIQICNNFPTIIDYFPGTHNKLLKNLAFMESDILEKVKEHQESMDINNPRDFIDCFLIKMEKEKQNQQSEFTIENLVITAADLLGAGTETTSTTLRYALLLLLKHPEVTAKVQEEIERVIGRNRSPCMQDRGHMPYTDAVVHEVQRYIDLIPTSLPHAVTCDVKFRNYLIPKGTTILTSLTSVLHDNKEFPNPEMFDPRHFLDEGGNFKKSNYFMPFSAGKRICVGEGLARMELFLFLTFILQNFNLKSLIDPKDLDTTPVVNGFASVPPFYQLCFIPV
CYP2D6, sequence (P10635 whole entry): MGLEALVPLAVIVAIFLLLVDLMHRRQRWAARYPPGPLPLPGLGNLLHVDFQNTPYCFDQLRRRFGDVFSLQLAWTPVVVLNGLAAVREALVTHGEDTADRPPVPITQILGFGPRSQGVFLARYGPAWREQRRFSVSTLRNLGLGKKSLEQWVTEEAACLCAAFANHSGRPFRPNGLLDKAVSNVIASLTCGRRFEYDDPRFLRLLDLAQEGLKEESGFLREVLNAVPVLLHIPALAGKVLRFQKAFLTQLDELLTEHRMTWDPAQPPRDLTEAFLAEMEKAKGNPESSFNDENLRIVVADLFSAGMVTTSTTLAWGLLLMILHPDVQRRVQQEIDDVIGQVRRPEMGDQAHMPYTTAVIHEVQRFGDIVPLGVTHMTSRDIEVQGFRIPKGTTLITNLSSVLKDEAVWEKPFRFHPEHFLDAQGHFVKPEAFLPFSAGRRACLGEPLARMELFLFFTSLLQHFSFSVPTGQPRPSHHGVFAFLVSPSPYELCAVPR
CYP2C9, sequence (P11712 whole entry): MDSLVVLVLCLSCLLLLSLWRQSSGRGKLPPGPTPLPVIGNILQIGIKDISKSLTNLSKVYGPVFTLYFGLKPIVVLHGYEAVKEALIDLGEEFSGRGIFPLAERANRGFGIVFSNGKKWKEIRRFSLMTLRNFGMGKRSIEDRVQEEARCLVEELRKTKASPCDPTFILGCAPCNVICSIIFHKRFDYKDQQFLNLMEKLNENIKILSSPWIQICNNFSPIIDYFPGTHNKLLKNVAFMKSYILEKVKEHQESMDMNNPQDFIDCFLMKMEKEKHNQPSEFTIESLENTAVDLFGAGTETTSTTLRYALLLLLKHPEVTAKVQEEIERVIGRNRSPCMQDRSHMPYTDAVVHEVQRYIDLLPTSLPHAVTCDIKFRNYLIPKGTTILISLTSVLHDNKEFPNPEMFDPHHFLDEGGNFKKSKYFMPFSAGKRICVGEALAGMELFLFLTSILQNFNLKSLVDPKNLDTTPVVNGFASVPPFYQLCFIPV
CYP3A4, sequence (P08684 whole entry): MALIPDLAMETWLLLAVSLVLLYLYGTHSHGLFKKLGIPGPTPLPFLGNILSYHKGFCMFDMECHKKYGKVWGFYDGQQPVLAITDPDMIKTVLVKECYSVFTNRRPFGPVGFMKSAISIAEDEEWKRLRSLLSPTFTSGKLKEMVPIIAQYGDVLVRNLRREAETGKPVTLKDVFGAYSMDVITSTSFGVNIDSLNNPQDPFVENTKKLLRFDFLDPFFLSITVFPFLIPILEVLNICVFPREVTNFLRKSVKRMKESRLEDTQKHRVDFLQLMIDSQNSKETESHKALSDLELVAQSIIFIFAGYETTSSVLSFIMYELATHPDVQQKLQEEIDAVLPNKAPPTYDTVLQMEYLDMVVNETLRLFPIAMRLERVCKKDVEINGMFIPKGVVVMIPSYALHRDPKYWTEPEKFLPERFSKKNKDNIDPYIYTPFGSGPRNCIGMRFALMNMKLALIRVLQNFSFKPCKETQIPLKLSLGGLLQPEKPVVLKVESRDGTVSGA

COc1c(C(=O)Nc2ccc3c(C)nn(CCC4CCN(C)CC4)c3c2)ccc2c1C=CC(C)(C)O2
inhibition at 10 µM (BT-474 [1]): < 20% | inhibition at 10 µM (JIMT-1): < 20% | Activity (HEK293): Toxic | AUC(0-t) [2]: 0.771 µg·h/mL | AUC [3]: 1.059 µg·h/mL | IC50 [4]: 6.86 µM | IC50 [5]: 4.42 µM | Activity (BT-474 [6]): Active | Activity (BT-474 [7]): Active | inhibition [8]: Active | inhibition [9]: Active | Activity (BT-474 [10]): Active | Activity (BT-474 [11]): Active | Activity [12]: Active | Activity [13]: Active | inhibition [14]: Active | inhibition [15]: Active | Activity [16]: Active | Activity [17]: Active | inhibition [18]: Active | inhibition (Homo sapiens): inactive | Activity [19]: Active | Activity [20]: Active | Activity [21]: Active | Activity [22]: Non-Toxic | remaining at 0.5 h [23]: 94.5% | remaining at 0.5 h [24]: 62.8% | remaining at 2 h [25]: 100% | remaining at 2 h [26]: 98.3% | AUC/dose [27]: 154.3 ng·h/mL | C0 [28]: 0.342 µg/mL | half-life [29]: 4.4 h | MRT inf [30]: 5.4 h | clearance [31]: 84.5 mL/min | Vd [32]: 31.2 L/kg | AUC(0-t) [33]: 1.03 µg·h/mL | AUC [34]: 2.957 µg·h/mL | AUC/dose [35]: 103.2 ng·h/mL | Cmax [36]: 0.159 µg/mL | Tmax [37]: 4 h | half-life [38]: 9.6 h | MRT inf [39]: 15 h | CL/F [40]: 47.3 mL/min | Vd [41]: 3.6 L/kg | F [42]: 66.9% | inhibition at 10 µM (hERG (KCNH2) [43]): 57% | inhibition at 3 µM (hERG (KCNH2) [44]): 30.4% | inhibition at 30 µM (hERG (KCNH2) [45]): 87.1% | inhibition at 10 µM (CYP1A2): > 100% | inhibition at 10 µM (CYP2C9): 78.2% | inhibition at 10 µM (CYP3A4): 73% | inhibition at 10 µM (CYP2C19): 56.3% | inhibition at 10 µM (CYP2D6): 55.3% | Activity [46]: Non-Toxic | Activity [47]: Non-Toxic | Activity [48]: Non-Toxic | Activity [49]: Non-Toxic
